Data as given in US8138189B2, “Substituted benzene compounds as modulators of the glucocorticoid receptor” (Hoffman-La Roche Inc., priority 2009, dated 2012).

These compounds were tested against T1, full length human recombinant glucocorticoid receptor (Homo sapiens, UniProt P04150) (assay: Glucocorticoid Receptor Binding Assay (fluorescence polarization competitor assay, Fluormone GS Far Red tracer)).
T1 construct: partially purified full length human recombinant glucocorticoid receptor; purchased Panvera/Invitrogen PV4302
T1 sequence (P04150 1-777): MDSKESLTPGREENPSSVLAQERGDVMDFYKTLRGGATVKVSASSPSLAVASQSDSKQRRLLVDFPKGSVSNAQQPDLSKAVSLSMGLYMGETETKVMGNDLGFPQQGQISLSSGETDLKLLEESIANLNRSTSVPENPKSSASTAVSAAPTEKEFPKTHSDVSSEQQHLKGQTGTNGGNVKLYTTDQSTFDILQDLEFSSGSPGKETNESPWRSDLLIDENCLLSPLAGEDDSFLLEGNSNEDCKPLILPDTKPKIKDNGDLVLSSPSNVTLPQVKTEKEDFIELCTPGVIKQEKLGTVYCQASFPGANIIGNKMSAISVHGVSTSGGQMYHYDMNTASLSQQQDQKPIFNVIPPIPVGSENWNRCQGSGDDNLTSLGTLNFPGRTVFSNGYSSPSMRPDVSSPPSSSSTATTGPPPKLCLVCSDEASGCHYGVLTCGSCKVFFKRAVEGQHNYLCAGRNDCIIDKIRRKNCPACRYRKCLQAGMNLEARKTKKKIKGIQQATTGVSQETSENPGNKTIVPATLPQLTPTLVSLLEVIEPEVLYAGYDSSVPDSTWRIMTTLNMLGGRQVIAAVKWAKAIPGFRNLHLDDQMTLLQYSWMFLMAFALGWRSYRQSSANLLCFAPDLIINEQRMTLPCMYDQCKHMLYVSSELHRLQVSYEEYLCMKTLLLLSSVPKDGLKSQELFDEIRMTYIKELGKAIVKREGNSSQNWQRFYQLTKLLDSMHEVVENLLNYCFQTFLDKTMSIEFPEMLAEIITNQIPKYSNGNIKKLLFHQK
In short: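 Partially purified full-length recombinant human GR with a stabilizing coactivator peptide was incubated with Fluormone GS Far Red tracer and serially diluted compound for 3 h at 22 °C in the dark, pH 7.4. Fluorescence polarization was read at 610-660 nm. IC50 came from sigmoidal fitting, and Ki from Cheng-Prusoff.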

Row | Structure (SMILES) | Ki [µM]
1 | C[C@H](c1ccc(OCc2ccc(C(=O)O)cc2)cc1Cl)[C@@](O)(c1ccnc(Cl)c1)C(F)(F)F (stereo in doubt) [Example 20, 4-{3-Chloro-4-[2-(2-chloro-pyridin-4-yl)-3,3,3-trifluoro-2-hydroxy-1-methyl-propyl]-phenoxymethyl}-benzoic acid] | 0.0029
2 | COc1cc(C(=O)O)ccc1COc1ccc([C@@H](C)[C@@](O)(c2ccnc(Cl)c2)C(F)(F)F)c(Cl)c1 (stereo in doubt) [Example 22, 4-{3-Chloro-4-[2-(2-chloro-pyridin-4-yl)-3,3,3-trifluoro-2-hydroxy-1-methyl-propyl]-phenoxymethyl}-3-methoxy-benzoic acid] | 0.0107
3 | C[C@H](c1ccc(OCc2ccc(CC(=O)O)cc2)cc1Cl)[C@@](O)(c1ccnc(Cl)c1)C(F)(F)F (stereo in doubt) [Example 24, (4-{3-Chloro-4-[2-(2-chloro-pyridin-4-yl)-3,3,3-trifluoro-2-hydroxy-1-methyl-propyl]-phenoxymethyl}-phenyl)-acetic acid] | 0.0047
4 | C[C@H](c1ccc(OS(=O)(=O)c2ccc(C(=O)O)cc2)cc1Cl)[C@@](O)(c1ccnc(Cl)c1)C(F)(F)F (stereo in doubt) [Example 25, 4-{3-Chloro-4-[2-(2-chloro-pyridin-4-yl)-3,3,3-trifluoro-2-hydroxy-1-methyl-propyl]-phenoxysulfonyl}-benzoic acid] | 0.0115
5 | C[C@H](c1ccc(C(=O)Nc2ccc(C(=O)O)cc2)cc1Cl)[C@@](O)(c1ccnc(Cl)c1)C(F)(F)F (stereo in doubt) [Example 26, 4-{3-Chloro-4-[2-(2-chloro-pyridin-4-yl)-3,3,3-trifluoro-2-hydroxy-1-methyl-propyl]-benzoylamino}-benzoic acid] | 0.2
6 | COC(=O)c1ccnc(NC(=O)c2ccc([C@@H](C)[C@@](O)(c3ccnc(Cl)c3)C(F)(F)F)c(Cl)c2)c1 (stereo in doubt) [Example 27, 2-{3-Chloro-4-[-2-(2-chloro-pyridin-4-yl)-3,3,3-trifluoro-2-hydroxy-1-methyl-propyl]-benzoylamino}-isonicotinic acid methyl ester] | 0.0947
7 | C[C@H](c1ccc(C(=O)Nc2cc(C(=O)O)ccn2)cc1Cl)[C@@](O)(c1ccnc(Cl)c1)C(F)(F)F (stereo in doubt) [Example 29, 2-{3-Chloro-4-[2-(2-chloro-pyridin-4-yl)-3,3,3-trifluoro-2-hydroxy-1-methyl-propyl]-benzoylamino}-isonicotinic acid] | 0.171
8 | CCOC(=O)C1CCN(C(=O)c2ccc([C@@H](C)[C@@](O)(c3ccnc(Cl)c3)C(F)(F)F)c(Cl)c2)CC1 (stereo in doubt) [Example 32, 1-{3-Chloro-4-[2-(2-chloro-pyridin-4-yl)-3,3,3-trifluoro-2-hydroxy-1-methyl-propyl]-benzoyl}-piperidine-4-carboxylic acid ethyl ester] | 0.245
9 | C[C@H](c1ccc(C(=O)Nc2ccn(CC(=O)O)n2)cc1Cl)[C@@](O)(c1ccnc(Cl)c1)C(F)(F)F (stereo in doubt) [Example 35, (3-{3-Chloro-4-[2-(2-chloro-pyridin-4-yl)-3,3,3-trifluoro-2-hydroxy-1-methyl-propyl]-benzoylamino}-pyrazol-1-yl)-acetic acid] | 0.337
10 | C[C@H](c1ccc(C(=O)NCc2ccc(C(=O)O)cc2)cc1Cl)[C@@](O)(c1ccnc(Cl)c1)C(F)(F)F (stereo in doubt) [Example 37, 4-({3-Chloro-4-[2-(2-chloro-pyridin-4-yl)-3,3,3-trifluoro-2-hydroxy-1-methyl-propyl]-benzoylamino}-methyl)-benzoic acid] | 0.14
11 | C[C@H](c1ccc(C(=O)Nc2ccc(CC(=O)O)cc2)cc1Cl)[C@@](O)(c1ccnc(Cl)c1)C(F)(F)F (stereo in doubt) [Example 39, (4-{3-Chloro-4-[2-(2-chloro-pyridin-4-yl)-3,3,3-trifluoro-2-hydroxy-1-methyl-propyl]-benzoylamino}-phenyl)-acetic acid] | 0.274
12 | C[C@H](c1ccc(C(=O)Nc2cccc(C(=O)O)c2)cc1Cl)[C@@](O)(c1ccnc(Cl)c1)C(F)(F)F (stereo in doubt) [Example 41, 3-{3-Chloro-4-[2-(2-chloro-pyridin-4-yl)-3,3,3-trifluoro-2-hydroxy-1-methyl-propyl]-benzoylamino}-benzoic acid] | 0.289
13 | CCOC(=O)Cc1ccc(CNC(=O)c2ccc([C@@H](C)[C@@](O)(c3ccnc(Cl)c3)C(F)(F)F)c(Cl)c2)cc1 (stereo in doubt) [Example 42, [4-({3-Chloro-4-[2-(2-chloro-pyridin-4-yl)-3,3,3-trifluoro-2-hydroxy-1-methyl-propyl]-benzoylamino}-methyl)-phenyl]-acetic acid ethyl ester] | 0.28
14 | C[C@H](c1ccc(C(=O)NCc2ccc(CC(=O)O)cc2)cc1Cl)[C@@](O)(c1ccnc(Cl)c1)C(F)(F)F (stereo in doubt) [Example 43, [4-({3-Chloro-4-[2-(2-chloro-pyridin-4-yl)-3,3,3-trifluoro-2-hydroxy-1-methyl-propyl]-benzoylamino}-methyl)-phenyl]-acetic acid] | 0.156
15 | C[C@H](c1ccc(-c2nc(C(=O)O)no2)cc1Cl)[C@@](O)(c1ccnc(Cl)c1)C(F)(F)F (stereo in doubt) [Example 48, 5-{3-Chloro-4-[2-(2-chloro-pyridin-4-yl)-3,3,3-trifluoro-2-hydroxy-1-methyl-propyl]-phenyl}-[1,2,4]oxadiazole-3-carboxylic acid] | 0.144
16 | COC(=O)c1ccc(-c2ccc([C@@H](C)[C@@](O)(c3ccnc(Cl)c3)C(F)(F)F)c(Cl)c2)cc1 (stereo in doubt) [Example 49, 3′-Chloro-4′-[2-(2-chloro-pyridin-4-yl)-3,3,3-trifluoro-2-hydroxy-1-methyl-propyl]-biphenyl-4-carboxylic acid methyl ester] | 0.0186
17 | CCOC(=O)c1cccc(-c2ccc([C@@H](C)[C@@](O)(c3ccnc(Cl)c3)C(F)(F)F)c(Cl)c2)c1 (stereo in doubt) [Example 51, 3′-Chloro-4′-[2-(2-chloro-pyridin-4-yl)-3,3,3-trifluoro-2-hydroxy-1-methyl-propyl]-biphenyl-3-carboxylic acid ethyl ester] | 0.15
18 | C[C@H](c1ccc(-c2ccc(C(=O)O)c(F)c2)cc1Cl)[C@@](O)(c1ccnc(Cl)c1)C(F)(F)F (stereo in doubt) [Example 54, 3′-Chloro-4′-[2-(2-chloro-pyridin-4-yl)-3,3,3-trifluoro-2-hydroxy-1-methyl-propyl]-3-fluoro-biphenyl-4-carboxylic acid] | 0.0297
19 | C[C@H](c1ccc(-c2ccc(CCC(=O)O)cc2)cc1Cl)[C@@](O)(c1ccnc(Cl)c1)C(F)(F)F (stereo in doubt) [Example 55, 3-{3′-Chloro-4′-[2-(2-chloro-pyridin-4-yl)-3,3,3-trifluoro-2-hydroxy-1-methyl-propyl]-biphenyl-4-yl}-propionic acid] | 0.0294
20 | CCOC(=O)c1cccc(-c2ccc([C@@H](C)[C@@](O)(c3ccnc(-c4cccc(C(=O)OCC)c4)c3)C(F)(F)F)c(Cl)c2)c1 (stereo in doubt) [Example 56, 3′-Chloro-4′-{2-[2-(3-ethoxycarbonyl-phenyl)-pyridin-4-yl]-3,3,3-trifluoro-2-hydroxy-1-methyl-propyl}-biphenyl-3-carboxylic acid ethyl ester] | 0.207
